Results: patent US20180363025A1, “T[…] FOR GUT INFLAMMATION” (William Marsh Rice University, priority 2015, published 2018)
“Also recorded” adds a separate entry of the source.

How the values were obtained:
Shal_3128/9 [1] = assay: Ligand competition assay, sensor response to thiosulfate in presence of other TEAs; type: cell-based, Shewanella halifaxensis; conditions: 5 mM thiosulfate plus 10 mM other TEA; FIG. 3E
Method: FIG. 3A-F. Characterization of the thiosulfate-sensing proteins: Shal_3128/9. (3A) The S. halifaxensis genomic region containing the thiosulfate reductase operon (Shal_3125-7) and neighboring thiosulfate-sensing TCS (Shal_3128/9). (3B) Plasmid design of the inducible thiosulfate sensor. […] (3D) Selectivity of Shal_3128/9 to thiosulfate over other terminal electron acceptors. All TEAs were tested at 10 mM concentration. (3E) Ligand competition assay. Sensor performance at 5 mM thiosulfate was tested in the presence of 10 mM other TEAs, and a decrease in response indicates inhibition by the added ligand. (3F) Inhibition curve of tetrathionate (filled circles) and sulfite (open squares) in the presence of 5 mM thiosulfate.

Shal_3128/9 [2] = conditions: TEAs tested at 10 mM; E. coli BW28357 expressing Shal_3128/9; FIG. 3D
Source text: The sensor kinase was expressed from a p15A medium-copy expression vector with spectinomycin resistance. Production of Shal_3128 was driven by the Ptac promoter and a designed synthetic RBS (predicted strength 1,000), which was induced by IPTG and regulated by constitutively expressed LacI. Transcription of Shal_3128, LacI, and Spec^R was terminated by the B0015, T1, and T0 terminators, respectively.
The response regulator and rewired output promoter driving GFP production were on a ColE1 high-copy expression vector with chloramphenicol resistance. Shal_3129 production was regulated by constitutively expressed TetR at the PLTetO-1 aTc-inducible promoter with a synthetic RBS (predicted strength 1,000). […] Production of sfGFP was regulated by output of the PShal_3127 promoter using the B0034 RBS, which provides a visual readout of Shal_3128/9 activity. Transcription of Shal_3129, sfGFP, TetR, and Cm^R was terminated by the B0015, B0015, T1, and T0 terminators, respectively.
Both plasmids were transformed into the BW28357 E. coli strain, available from The Coli Genetic Stock Center (CGSC#: 7991, F−, Δ(araD-araB)567, ΔlacZ4787(TrnB-3); lambda^−, Δ(rhaD-rhaB)568, hsdR514).

thiosulfate sensor = assay: Effect of DSS on GFP output of optimized thiosulfate sensor; type: cell-based, Shewanella halifaxensis; conditions: 3% DSS; optimized constitutive sensor in E. coli Nissle; FIG. 4D
Chain of thiosulfate sensor (as listed by the source): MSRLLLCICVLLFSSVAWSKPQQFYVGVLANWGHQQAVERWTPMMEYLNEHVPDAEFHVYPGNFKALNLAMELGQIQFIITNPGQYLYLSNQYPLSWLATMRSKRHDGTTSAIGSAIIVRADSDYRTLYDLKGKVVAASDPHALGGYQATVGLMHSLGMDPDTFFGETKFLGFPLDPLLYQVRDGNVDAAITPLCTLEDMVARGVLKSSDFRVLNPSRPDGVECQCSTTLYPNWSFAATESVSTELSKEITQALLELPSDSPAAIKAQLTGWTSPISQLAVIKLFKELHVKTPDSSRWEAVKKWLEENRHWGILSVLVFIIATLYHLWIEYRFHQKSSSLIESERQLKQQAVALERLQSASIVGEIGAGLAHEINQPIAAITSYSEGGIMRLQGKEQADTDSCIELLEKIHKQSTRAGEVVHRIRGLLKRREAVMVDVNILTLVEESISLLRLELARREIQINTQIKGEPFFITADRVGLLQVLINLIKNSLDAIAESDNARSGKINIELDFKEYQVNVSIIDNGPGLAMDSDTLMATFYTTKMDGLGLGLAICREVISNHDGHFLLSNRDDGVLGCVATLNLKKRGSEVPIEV
Chain of thiosulfate sensor (as listed by the source partner): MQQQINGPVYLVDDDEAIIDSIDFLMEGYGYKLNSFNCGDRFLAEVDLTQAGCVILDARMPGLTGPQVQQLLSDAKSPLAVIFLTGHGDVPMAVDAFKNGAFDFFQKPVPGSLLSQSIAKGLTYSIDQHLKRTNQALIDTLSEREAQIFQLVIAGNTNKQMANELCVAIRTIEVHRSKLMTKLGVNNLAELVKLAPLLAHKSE
Source text: FIG. 4A-D. Sensor optimization for thiosulfate detection in the gut. (4A) Changes made between the initial characterization constructs and in vivo optimized sensor. (4B) Layout of sensor components on the final two plasmid expression system. (4C) Normalized dose-response behavior of thiosulfate sensors. Shown is the original, inducible, BW28357 strain grown aerobically (closed circles), and the selected constitutive promoter strain in Nissle grown aerobically (closed squares) and anaerobically (open squares). A shift in half-maximal response indicates sensitivity to oxygen. (4D) Dynamic range of optimized thiosulfate sensors. GFP output is shown in the absence (grey bars) and presence of 5 mM thiosulfate or 1 mM tetrathionate, respectively (black bars).

Compound | competition (inhibition of thiosulfate response) (Shal_3128/9 [1]) | also measured
O=S(=O)(O)SSS(=O)(=O)O [tetrathionate] | modest level of competition | 
O=S(O)O [sulfite] | modest level of competition | 
O=S(O)(O)=S [thiosulfate] |  | stimulation of production of reporter protein GFP (Shal_3128/9 [2]): effectively stimulated production of reporter protein GFP
Dextran Sodium Sulfate [DSS] |  | activation or inhibition of sensor signaling (thiosulfate sensor): does not activate or inhibit signaling; also recorded: does not appear to be sensitive
